Converted amounts (≈) assume the structure as drawn. “And” between values parts separate entries of the source, which are not always exact repeats. Equal entries are not always repeated.

Series [1] in a line: DNDI: Cytotoxicity against L929 mouse fibroblasts, CYTO-SP, 24 hour. It is filed as toxicity, cell-based. The settings on record: mouse, L929 mouse fibroblasts.
The subject of a further series is Trypanosoma brucei. The series can be described thus: DNDI: Inhibition of Human African Trypanosomiasis, SBRI 427, in vitro. It is filed as functional, organism-based.
Setting [2] is: Trypanosoma brucei, SBRI 427, read-out: IC50.

As for `N#Cc1cccnc1Oc1ccccc1`, the IC50 (as a rule, the concentration needed to halve the response being measured) at 24 h in series [1] was more than 50 µg/mL. Besides, the IC50 in the series with Trypanosoma brucei (setting [2]) is more than 5 µg/mL.

With `Fc1ccccc1Oc1ncccc1CNC1CCCCC1`, the half-maximal inhibitory concentration (IC50) at 24 h in series [1] is more than 50 µg/mL. The IC50 in the series on Trypanosoma brucei (setting [2]) is more than 5 µg/mL.

Regarding `N#Cc1cccnc1Oc1ccccc1Br`, the IC50 at 24 h in series [1] is more than 50 µg/mL. Moreover, the half-maximal inhibitory concentration (IC50) in the series with Trypanosoma brucei (setting [2]) is more than 5 µg/mL.

Take `Cc1ccc(-c2nc(CNC[C@@H]3CC[C@H]4C[C@@H]3C4(C)C)co2)cc1`: the half-maximal inhibitory concentration (IC50) at 24 h in series [1] was 28.4 µg/mL (≈ 87.5 µM). The IC50 with Trypanosoma brucei was 0.93 µg/mL and 2.49 µg/mL.

Compound `CCc1ccccc1Oc1ncccc1/C(N)=N\O` displayed an IC50 at 24 h in series [1] of more than 5 µg/mL. Further, the IC50 with Trypanosoma brucei (setting [2]) was more than 5 µg/mL.

In the case of `CSc1ccccc1Oc1ncccc1C#N`, the IC50 at 24 h in series [1] is more than 50 µg/mL. The half-maximal inhibitory concentration (IC50) in the series on Trypanosoma brucei (setting [2]) is more than 5 µg/mL.

Compound `COc1cc(C)ccc1Oc1nc(C)ccc1/C(=N/O)NCc1cc(F)cc(F)c1` returned an IC50 at 24 h in series [1] of more than 50 µg/mL. Further, the half-inhibitory concentration (IC50) in the series on Trypanosoma brucei (setting [2]) was determined as 1.02 µg/mL (≈ 2.47 µM).

As to `N/C(=N/O)c1cccnc1Oc1ccc2ccccc2c1`, the IC50 at 24 h in series [1] was more than 50 µg/mL. Moreover, in the series on Trypanosoma brucei (setting [2]), the half-inhibitory concentration (IC50) was more than 5 µg/mL.

In series [1], `N/C(=N/O)c1cccnc1Oc1cccc2ccccc12` displayed an IC50 at 24 h of more than 50 µg/mL. Also, the IC50 with Trypanosoma brucei (setting [2]) was more than 5 µg/mL.

Turning to `N#Cc1cccnc1Oc1ccc2ccccc2c1`, the IC50 at 24 h in series [1] was more than 50 µg/mL. Moreover, in the series with Trypanosoma brucei (setting [2]), the IC50 is more than 5 µg/mL.

Turning to `COc1cc(C)ccc1Oc1nc(C)ccc1/C(=N/O)NCc1cc(C)cc(C)c1`, the IC50 at 24 h in series [1] is more than 50 µg/mL. For the same compound, the IC50 with Trypanosoma brucei (setting [2]) turned out to be 1.1 µg/mL (≈ 2.71 µM).

For the compound `COc1ccccc1Oc1ncccc1C(=O)NC1CCCCC1`, the half-maximal inhibitory concentration (IC50) at 24 h in series [1] is more than 50 µg/mL. In the series with Trypanosoma brucei (setting [2]), the IC50 is more than 5 µg/mL.

As for `Cc1ccccc1CN/C(=N\O)c1cccnc1Oc1c(F)cccc1F`, the IC50 at 24 h in series [1] is more than 50 µg/mL. Moreover, the IC50 with Trypanosoma brucei (setting [2]) came to 1.02 µg/mL (≈ 2.76 µM).

With `N/C(=N/O)c1cccnc1Oc1ccccc1`, the IC50 at 24 h in series [1] was more than 50 µg/mL. Moreover, in the series on Trypanosoma brucei (setting [2]), the IC50 was more than 5 µg/mL.

`O/N=C(\NC1CCC1)c1cccnc1Oc1ccc2c(c1)CCCC2` returned a half-maximal inhibitory concentration (IC50) at 24 h in series [1] of more than 50 µg/mL. In the series on Trypanosoma brucei (setting [2]), the IC50 was 0.19 µg/mL (≈ 0.563 µM).

With `CCc1ccccc1Oc1ncccc1C#N`, the IC50 at 24 h in series [1] was more than 50 µg/mL. Moreover, the IC50 with Trypanosoma brucei (setting [2]) was more than 5 µg/mL.

In the case of `N#Cc1cccnc1Oc1cccc2ccccc12`, in series [1], the IC50 at 24 h was more than 50 µg/mL. The half-inhibitory concentration (IC50) with Trypanosoma brucei (setting [2]) was more than 5 µg/mL.

The compound `CC1CCC(N/C(=N\O)c2cccnc2Oc2ccccc2OC(C)C)CC1` (configuration not stated) had an IC50 at 24 h in series [1] of more than 50 µg/mL. Further, the IC50 in the series with Trypanosoma brucei (setting [2]) amounted to 0.55 µg/mL (≈ 1.43 µM).

Turning to `O=C(NC1CCCCC1)c1cccnc1Oc1ccccc1`, in series [1], the half-maximal inhibitory concentration (IC50) at 24 h was more than 50 µg/mL. Besides, the IC50 in the series on Trypanosoma brucei (setting [2]) was more than 5 µg/mL.

For `N#Cc1cccnc1Oc1ccccc1F`, the IC50 at 24 h in series [1] is more than 50 µg/mL. Also, in the series on Trypanosoma brucei (setting [2]), the IC50 was more than 5 µg/mL.

As to `O=C(NC1CCCCC1)c1cccnc1Cl`, the IC50 at 24 h in series [1] is more than 50 µg/mL. For the same compound, the IC50 with Trypanosoma brucei (setting [2]) is more than 5 µg/mL.

On to `COc1ccccc1Oc1ncccc1C#N`, for which, in series [1], the 50% inhibitory concentration (IC50) at 24 h was more than 50 µg/mL. Moreover, the half-inhibitory concentration (IC50) in the series on Trypanosoma brucei (setting [2]) is more than 5 µg/mL.

In turn, `CSc1ccccc1Oc1ncccc1/C(N)=N\O` displayed an IC50 at 24 h in series [1] of more than 5 µg/mL. In the series on Trypanosoma brucei (setting [2]), the half-maximal inhibitory concentration (IC50) was more than 5 µg/mL.

Compound `O=C(NC1CCCCC1)c1cccnc1Oc1ccccc1Cl` gave a half-maximal inhibitory concentration (IC50) at 24 h in series [1] of more than 50 µg/mL. Further, the half-maximal inhibitory concentration (IC50) in the series on Trypanosoma brucei (setting [2]) is more than 5 µg/mL.

Compound `N/C(=N/O)c1cccnc1Oc1ccccc1Br` returned an IC50 at 24 h in series [1] of more than 50 µg/mL. Besides, the 50% inhibitory concentration (IC50) in the series with Trypanosoma brucei (setting [2]) is more than 5 µg/mL.

Regarding `CCC(CC)N/C(=N\O)c1ccc(C)nc1Oc1ccc(SC)cc1`, in series [1], the 50% inhibitory concentration (IC50) at 24 h is more than 50 µg/mL. Besides, in the series with Trypanosoma brucei (setting [2]), the IC50 amounted to 1.08 µg/mL (≈ 3 µM).

In series [1], `COc1cc(C)ccc1Oc1ncccc1/C(N)=N/O` registered an IC50 at 24 h of more than 5 µg/mL. In addition, in the series with Trypanosoma brucei (setting [2]), the half-maximal inhibitory concentration (IC50) is more than 5 µg/mL.

Consider `CC(C)Oc1ccccc1Oc1ncccc1/C(=N/O)NC1CCCCC1`, for which the IC50 at 24 h in series [1] was more than 50 µg/mL. Also, in the series with Trypanosoma brucei (setting [2]), the half-maximal inhibitory concentration (IC50) is 0.46 µg/mL (≈ 1.25 µM).

Regarding `CC(C)(C)CN/C(=N\O)c1cccnc1Oc1c(F)cccc1F`, inhibition in series [1] was half-maximal at 45.4 µg/mL (≈ 135 µM) (IC50 at 24 h). Besides, in the series with Trypanosoma brucei (setting [2]), the concentration for half-maximal inhibition (IC50) worked out at 0.39 µg/mL (≈ 1.16 µM).

`CC1CCC(N/C(=N\O)c2cccnc2Oc2c(F)cccc2F)CC1` (configuration not stated): in series [1], the 50% inhibitory concentration (IC50) at 24 h is more than 50 µg/mL. For the same compound, the concentration for half-maximal inhibition (IC50) with Trypanosoma brucei (setting [2]) was 0.99 µg/mL (≈ 2.74 µM).

On to `COc1cc(C)ccc1Oc1nc(C)ccc1/C(=N/O)NCC(C)(C)C`, for which, in series [1], the 50% inhibitory concentration (IC50) at 24 h is less than 50 µg/mL. Moreover, the IC50 in the series on Trypanosoma brucei (setting [2]) came out at 0.09 µg/mL (≈ 0.252 µM).

The values are drawn from ChEMBL document CHEMBL1857833, “Screening and optimization of specific chemical series against human African Trypanosomiasis (HAT)”.
